Experimental data taken from US9562053B2, “Benzo-fused heterocyclic derivatives useful as agonists of GPR120” (Janssen Pharmaceutica NV, priority 2013, dated 2017).

Target: T1, Human GPR120 short form (Homo sapiens, UniProt Q5NUL3)
T1 construct: expressed in transfected cells
T1 sequence (Q5NUL3 1-361): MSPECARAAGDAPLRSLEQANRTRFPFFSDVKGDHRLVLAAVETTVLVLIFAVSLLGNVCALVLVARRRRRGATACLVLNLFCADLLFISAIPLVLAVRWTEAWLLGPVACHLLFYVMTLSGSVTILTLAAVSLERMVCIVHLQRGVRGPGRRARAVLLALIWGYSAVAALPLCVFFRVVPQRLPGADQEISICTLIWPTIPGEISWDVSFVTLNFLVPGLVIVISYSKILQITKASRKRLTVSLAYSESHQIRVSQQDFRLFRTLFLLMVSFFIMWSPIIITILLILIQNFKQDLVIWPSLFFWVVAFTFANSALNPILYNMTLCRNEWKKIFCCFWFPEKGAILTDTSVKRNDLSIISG
Assay: Human GPR120 in Calcium Flux Assay, Procedure Calcium A (2500 cells/well)
Assay type: cell-based
Summary of the method: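 HEK293 cells stably expressing GPR120 short isoform, 2500 cells/well, serum-starved 1 h, loaded with Fluo-4 NW plus probenecid (30 min 37 °C, 15 min RT). Compounds prepared at 0.012–100 μM, 0.2% DMSO final. FLIPR calcium signal over 300 s as Fmax−Fmin; EC50 from variable-slope fit (Hill <2).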

Row | EC50 [nM] | Structure (SMILES)
1 | 67 | CCOc1c(Cl)cc2cc(CC)oc2c1COc1ccc(CCC(=O)O)c(C)c1C [Compound 62, 3-{4-[(5-Chloro-6-ethoxy-2-ethyl-1-benzofuran-7-yl)methoxy]-2,3-dimethylphenyl}propanoic acid]
2 | 67 | CCc1cc2cc(Cl)c(OCCOC)c(COc3ccc(CCC(=O)O)c(C)c3C)c2o1 [Compound 63, 3-(4-{[5-Chloro-2-ethyl-6-(2-methoxyethoxy)-1-benzofuran-7-yl]methoxy}-2,3-dimethylphenyl)propanoic acid]
3 | 56 | CCc1cc2cc(Cl)c(OCC(F)(F)F)c(COc3ccc(CCC(=O)O)c(C)c3C)c2o1 [Compound 64, 3-(4-{[5-Chloro-2-ethyl-6-(2,2,2-trifluoroethoxy)-1-benzofuran-7-yl]methoxy}-2,3-dimethylphenyl)propanoic acid]
4 | 96 | CCc1cc2cc(Cl)c(OC(C)C)c(COc3ccc(CCC(=O)O)c(C)c3C)c2o1 [Compound 65, 3-(4-{[5-Chloro-2-ethyl-6-(1-methylethoxy)-1-benzofuran-7-yl]methoxy}-2,3-dimethylphenyl)propanoic acid]
5 | 77 | CCOc1ccc2cc(CC)oc2c1COc1ccc(CCC(=O)O)c(C)c1C [Compound 66, 3-{4-[(6-Ethoxy-2-ethyl-1-benzofuran-7-yl)methoxy]-2,3-dimethylphenyl}propanoic acid]
6 | 93 | CCc1cc2cc(Cl)c(OCC(C)C)c(COc3ccc(CCC(=O)O)c(C)c3C)c2o1 [Compound 67, 3-(4-{[5-Chloro-2-ethyl-6-(2-methylpropoxy)-1-benzofuran-7-yl]methoxy}-2,3-dimethylphenyl)propanoic acid]
7 | 45 | CCc1cc2cc(Cl)c(OC(F)F)c(COc3ccc(CCC(=O)O)c(C)c3C)c2o1 [Compound 69, 3-(4-{[5-Chloro-6-(difluoromethoxy)-2-ethyl-1-benzofuran-7-yl]methoxy}-2,3-dimethylphenyl)propanoic acid]
8 | 162 | CCc1cc2ccc(OC(F)F)c(COc3ccc(CCC(=O)O)c(C)c3C)c2o1 [Compound 70, 3-(4-{[6-(Difluoromethoxy)-2-ethyl-1-benzofuran-7-yl]methoxy}-2,3-dimethylphenyl)propanoic acid]
9 | 64 | Cc1cc2c(F)c(OC(F)(F)F)c(F)c(COc3ccc(CCC(=O)O)c(C)c3C)c2o1 [Compound 71, 3-(4-{[4,6-Difluoro-2-methyl-5-(trifluoromethoxy)-1-benzofuran-7-yl]methoxy}-2,3-dimethylphenyl)propanoic acid]
10 | 182 | Cc1cc2c(F)c(OC(F)(F)F)c(F)c(COc3ccc(CCC(=O)O)c(F)c3F)c2o1 [Compound 75, 3-(4-{[4,6-Difluoro-2-methyl-5-(trifluoromethoxy)-1-benzofuran-7-yl]methoxy}-2,3-difluorophenyl)propanoic acid]
11 | 20 | Cc1cc2cc(OC(F)F)cc(COc3ccc(CCC(=O)O)c(C)c3C)c2o1 [Compound 76, 3-(4-{[5-(Difluoromethoxy)-2-methyl-1-benzofuran-7-yl]methoxy}-2,3-dimethylphenyl)propanoic acid]
12 | 28 | CCCc1cc2cc(OC(F)F)cc(COc3ccc(CCC(=O)O)c(C)c3C)c2o1 [Compound 77, 3-(4-{[5-(Difluoromethoxy)-2-propyl-1-benzofuran-7-yl]methoxy}-2,3-dimethylphenyl)propanoic acid]
13 | 20 | Cc1cc2cc(Cl)cc(COc3ccc(CCC(=O)O)c(C)c3C)c2o1 [Compound 78, 3-{4-[(5-Chloro-2-methyl-1-benzofuran-7-yl)methoxy]-2,3-dimethylphenyl}propanoic acid]
14 | 151 | Cc1oc2cc(Cl)cc(COc3ccc(CCC(=O)O)c(C)c3C)c2c1C [Compound 80, 3-{4-[(6-Chloro-2,3-dimethyl-1-benzofuran-4-yl)methoxy]-2,3-dimethylphenyl}propanoic acid]
15 | 136 | Cc1cc2c(COc3ccc(CCC(=O)O)c(C)c3C)cc(Cl)cc2o1 [Compound 81, 3-{4-[(6-Chloro-2-methyl-1-benzofuran-4-yl)methoxy]-2,3-dimethylphenyl}propanoic acid]
16 | 153 | Cc1cc2cc3c(c(COc4ccc(CCC(=O)O)c(C)c4C)c2o1)OCO3 [Compound 82, 3-{2,3-Dimethyl-4-[(6-methylfuro[2,3-f][1,3]benzodioxol-4-yl)methoxy]phenyl}propanoic acid]
17 | 51 | CC#Cc1cc(COc2ccc(CCC(=O)O)c(C)c2C)c2oc(C)cc2c1 [Compound 83, 3-{2,3-Dimethyl-4-[(2-methyl-5-prop-1-yn-1-yl-1-benzofuran-7-yl)methoxy]phenyl}propanoic acid]
18 | 131 | Cc1nc2cc(Cl)cc(COc3ccc(CCC(=O)O)c(C)c3C)c2o1 [Compound 84, 3-{4-[(5-Chloro-2-methyl-1,3-benzoxazol-7-yl)methoxy]-2,3-dimethylphenyl}propanoic acid]
19 | 15 | Cc1cc2cc(Cl)c(C)c(COc3ccc(CCC(=O)O)c(C)c3C)c2o1 [Compound 85, 3-{4-[(5-Chloro-2,6-dimethyl-1-benzofuran-7-yl)methoxy]-2,3-dimethylphenyl}propanoic acid]
20 | 207 | Cc1cc2cc(Cl)c(C)c(COc3c(F)cc(CCC(=O)O)cc3F)c2o1 [Compound 86, 3-{4-[(5-Chloro-2,6-dimethyl-1-benzofuran-7-yl)methoxy]-3,5-difluorophenyl}propanoic acid]
21 | 79 | Cc1c(CCC(=O)O)ccc(OCc2cc(Cl)cc3cc(CC(F)F)oc23)c1C [Compound 87, 3-(4-{[5-Chloro-2-(2,2-difluoroethyl)-1-benzofuran-7-yl]methoxy}-2,3-dimethylphenyl)propanoic acid]
22 | 17 | Cc1cc2cc3c(c(COc4ccc(CCC(=O)O)c(C)c4C)c2o1)OC(F)(F)O3 [Compound 89, 3-{4-[(2,2-Difluoro-6-methylfuro[2,3-f][1,3]benzodioxol-4-yl)methoxy]-2,3-dimethylphenyl}propanoic acid]
23 | 113 | Cc1cc2cc3c(c(COc4ccc(CCC(=O)O)c(C)c4C)c2o1)OCCO3 [Compound 90, 3-{2,3-Dimethyl-4-[(7-methyl-2,3-dihydrofuro[2,3-g][1,4]benzodioxin-5-yl)methoxy]phenyl}propanoic acid]
24 | 1920 | Cc1cc2cc(Cl)cc(COc3ccc(CCC(=O)O)c(C)c3C)c2s1 [Compound 91, 3-{4-[(5-Chloro-2-methyl-1-benzothiophen-7-yl)methoxy]-2,3-dimethylphenyl}propanoic acid]
25 | 1600 | Cc1cc2cc(Cl)cc(COc3c(F)cc(CCCO)cc3F)c2s1 [Compound 93, 3-{4-[(5-Chloro-2-methyl-1-benzothiophen-7-yl)methoxy]-3,5-difluorophenyl}propan-1-ol]
26 | 30 | Cc1c(CCC(=O)O)ccc(OCc2cc(OC(F)(F)F)cc3cc(CC(F)F)oc23)c1C [Compound 96, 3-(4-{[2-(2,2-Difluoroethyl)-5-(trifluoromethoxy)-1-benzofuran-7-yl]methoxy}-2,3-dimethylphenyl)propanoic acid]
27 | 18 | Cc1nc2c(COc3ccc(CCC(=O)O)c(C)c3C)cc(Cl)cc2s1 [Compound 98, 3-{4-[(6-Chloro-2-methyl-1,3-benzothiazol-4-yl)methoxy]-2,3-dimethylphenyl}propanoic acid]
